Measurements from ChEMBL document CHEMBL4270527, “Discovery of phenylsulfonylfuroxan derivatives as gamma globin inducers by histone acetylation” (Eur J Med Chem, 2018).
Calls of active or inactive are those of the source. The rule behind the calls is not given here.

Assays:
[1] = tested on: Platelet; experiment: Antiplatelet activity in Wistar rat platelet rich plasma assessed as inhibition of ADP-induced platelet aggregation at 100 uM pretreated for 1 min followed by ADP addition by turbidimetric method relative to control; assay type: functional
[2] = tested on: Mus musculus; experiment: Antinociceptive activity in Swiss albino mouse assessed as decrease in number of acetic acid-induced abdominal constriction at 100 umol/kg, po pretreated for 1 hr followed by acetic-acid challenge for 10 mins measured for 20 mins relative to control; assay type: functional; parameters: scale not given: the % may be the effect or the level left
[3] = tested on: Macrophage; experiment: Cytotoxicity against LPS-induced Swiss albino mouse macrophages assessed as cell viability at 6.2 to 50 uM after 24 hrs by MTT assay relative to control; assay type: functional
[4] = tested on: K562; experiment: Activation of histone H3/H4 acetylation in human K562 cells assessed as increase in […] expression at 6.7 to 12.5 uM after 48 hrs by Western blot analysis; assay type: cell-based
[5] = tested on: Macrophage; experiment: Inhibition of LPS-induced TNFalpha production in Swiss albino mouse macrophages at 12.5 uM after 24 hrs by ELISA relative to control; assay type: functional
[6] = target: Histone H4 (Homo sapiens) (UniProt P62805); experiment: Activation of histone H4 acetylation in human K562 cells at 6.7 to 100 uM after 24 hrs by Western blot analysis; assay type: cell-based
[7] = tested on: Macrophage; experiment: Inhibition of LPS-induced TNFalpha production in Swiss albino mouse macrophages at 6.2 uM after 24 hrs by ELISA relative to control; assay type: functional
[8] = target: MAP kinase p38 (Homo sapiens) (UniProt O15264+Q15759+Q16539+P53778); experiment: Activation of p38 MAPK phosphorylation in human K562 cells at 6.7 to 100 uM by Western blot analysis; assay type: cell-based
[9] = tested on: K562; experiment: Activation of histone H3 acetylation in human K562 cells at 100 uM after 24 hrs by Western blot analysis; assay type: cell-based
[10] = tested on: K562; experiment: Activation of histone H3/H4 acetylation in human K562 cells assessed as induction of […] production at 100 uM after 96 hrs by Western blot analysis; assay type: cell-based
[11] = tested on: Macrophage; experiment: Inhibition of LPS-induced TNFalpha production in Swiss albino mouse macrophages at 25 uM after 24 hrs by ELISA relative to control; assay type: functional
[12] = tested on: Macrophage; experiment: Inhibition of LPS-induced TNFalpha production in Swiss albino mouse macrophages at 50 uM after 24 hrs by ELISA relative to control; assay type: functional
[13] = tested on: CHO-K1; experiment: Mutagenicity in CHOK1 cells assessed as nuclear division index at 0.3 ug/ml after 24 hrs by Giemsa staining based microscopic analysis (reference value: 1.701 +/- 0.002); assay type: toxicity, cell-based, Cricetulus griseus; conditions: chinese hamster, cho-k1, 24 h
[14] = tested on: K562; experiment: Activation of histone H3/H4 acetylation in human K562 cells assessed as increase in […] expression at 25 to 100 uM after 96 hrs by Western blot analysis; assay type: cell-based
[15] = tested on: K562; experiment: Activation of histone H3 acetylation in human K562 cells at 6.7 to 100 uM after 24 hrs by Western blot analysis; assay type: cell-based
[16] = tested on: CHO-K1; experiment: Mutagenicity in CHOK1 cells assessed as frequency of micronucleus binucleated cells at 25 to 100 uM after 24 hrs by Giemsa staining based microscopic analysis; assay type: toxicity, cell-based, Cricetulus griseus; conditions: chinese hamster, cho-k1, 24 h
[17] = tested on: CHO-K1; experiment: Genotoxicity in CHOK1 cells assessed as increase in tail moment at 25 to 100 uM after 24 hrs by commet assay; assay type: toxicity, cell-based, Cricetulus griseus; conditions: chinese hamster, cho-k1, 24 h
[18] = tested on: CHO-K1; experiment: Genotoxicity in CHOK1 cells assessed as increase in commet tail at 100 uM after 24 hrs by commet assay; assay type: toxicity, cell-based, Cricetulus griseus; conditions: chinese hamster, cho-k1, 24 h
[19] = tested on: CHO-K1; experiment: Mutagenicity in CHOK1 cells assessed as nuclear division index at 25 uM after 24 hrs by Giemsa staining based microscopic analysis (reference value: 1.701 +/- 0.002); assay type: toxicity, cell-based, Cricetulus griseus; conditions: chinese hamster, cho-k1, 24 h
[20] = tested on: CHO-K1; experiment: Mutagenicity in CHOK1 cells assessed as nuclear division index at 100 uM after 24 hrs by Giemsa staining based microscopic analysis (reference value: 1.701 +/- 0.002); assay type: toxicity, cell-based, Cricetulus griseus; conditions: chinese hamster, cho-k1, 24 h
[21] = tested on: CHO-K1; experiment: Mutagenicity in CHOK1 cells assessed as frequency of micronucleus at 25 to 100 uM after 24 hrs by Giemsa staining based microscopic analysis; assay type: toxicity, cell-based, Cricetulus griseus; conditions: chinese hamster, cho-k1, 24 h
[22] = tested on: CHO-K1; experiment: Cytotoxicity against CHOK1 cells assessed as reduction in cell viability at 25 uM after 24 hrs by XTT assay relative to control; assay type: cell-based, Cricetulus griseus; conditions: chinese hamster, cho-k1, 24 h
[23] = tested on: CHO-K1; experiment: Mutagenicity in CHOK1 cells assessed as nuclear division index at 50 uM after 24 hrs by Giemsa staining based microscopic analysis (reference value: 1.701 +/- 0.002); assay type: toxicity, cell-based, Cricetulus griseus; conditions: chinese hamster, cho-k1, 24 h
[24] = Stability of the compound in pH 7.4 phosphate buffered saline assessed as compound hydrolysis after 4 hrs by UV-HPLC analysis; assay type: physicochemical; conditions: read-out: Drug degradation
[25] = tested on: CHO-K1; experiment: Cytotoxicity against CHOK1 cells assessed as reduction in cell viability at 100 uM after 24 hrs by XTT assay relative to control; assay type: cell-based, Cricetulus griseus; conditions: chinese hamster, cho-k1, 24 h
[26] = tested on: CHO-K1; experiment: Cytotoxicity against CHOK1 cells assessed as reduction in cell viability at 50 uM after 24 hrs by XTT assay relative to control; assay type: cell-based, Cricetulus griseus; conditions: chinese hamster, cho-k1, 24 h

In the case of CC(=O)Oc1ccccc1C(=O)O [ASPIRIN], the inhibition at 100 µM [1] is reported as 5%.

O=C(N/N=C/c1ccc2no[n+]([O-])c2c1)c1cccc(N2C(=O)c3ccccc3C2=O)c1 showed an Activity [2] of 40.5%, an inhibition at 100 µM [1] of 1.2% and an Activity [3] greater than 75%.

In the case of O=C(N/N=C/c1cccc(Oc2no[n+]([O-])c2S(=O)(=O)c2ccccc2)c1)c1ccc(N2C(=O)c3ccccc3C2=O)cc1, the Activity [4] is reported as “Active”, the Activity [2] is reported as 42% and the inhibition at 12.5 µM [5] is reported as 64.9%. For the same compound, the Activity [6] was “Active”, the inhibition at 6.2 µM [7] was 61% and the Activity [8] was “inactive”. For the same compound, the inhibition at 100 µM [1] was 84%, the Activity [3] was greater than 75% and the Activity [9] was “Active”. For the same compound, the Activity [10] was “Active” and the inhibition at 25 µM [11] was 73.6%.

Compound O=C1CCC(N2C(=O)c3ccccc3C2=O)C(=O)N1 (configuration not stated) [THALIDOMIDE] has an inhibition at 50 µM [12] of 31.7%.

O=C(N/N=C/c1ccc2no[n+]([O-])c2c1)c1ccc(N2C(=O)c3ccccc3C2=O)cc1 gave an Activity [2] of 48.3%, an inhibition at 12.5 µM [5] of 99.9% and an inhibition at 50 µM [12] of 54.5%. The inhibition at 100 µM [1] was 2.8%, the Activity [3] was greater than 75% and the inhibition at 25 µM [11] was 99.5%.

With O=C(N/N=C/c1c(-c2ccccc2)no[n+]1[O-])c1ccc(N2C(=O)c3ccccc3C2=O)cc1 the Activity [2] was 44.8%, the inhibition at 100 µM [1] was 26.5% and the Activity [3] was greater than 75%.

COc1cccc2c1C(=O)c1c(O)c3c(c(O)c1C2=O)C[C@@](O)(C(=O)CO)C[C@@H]3O[C@H]1C[C@H](N)[C@H](O)[C@H](C)O1 [DOXORUBICIN] showed an Activity_index [13] of 1.683.

Work on O=C(N/N=C/c1ccc2no[n+]([O-])c2c1)c1ccccc1N1C(=O)c2ccccc2C1=O yielded an Activity [2] of 30.5% and an inhibition at 100 µM [1] of 0%.

In the case of O=C(N/N=C/c1ccc(Oc2no[n+]([O-])c2S(=O)(=O)c2ccccc2)cc1)c1ccc(N2C(=O)c3ccccc3C2=O)cc1, the Activity [2] is reported as 50.1%, the inhibition at 12.5 µM [5] is reported as 54.2% and the Activity [6] is reported as “inactive”. The Activity [14] was “Active”, the Activity [15] was “Active” and the inhibition at 6.2 µM [7] was 41%. The Activity [16] was “Non-Toxic”, the Activity [17] was “Non-Toxic” and the Activity [8] was “inactive”. The Activity [18] was “Non-Toxic”, the Activity_index [19] was 1.691 and the Activity_index [20] was 1.697. The Activity [21] was “Non-Toxic”, the inhibition at 100 µM [1] was 76.1% and the Activity [3] was greater than 75%. It also gave an Activity [22] of 4%, an Activity_index [23] of 1.69 and a degraded at 4 h [24] of 30%. The Activity [25] was “<= 30%”, the Activity [26] was 14% and the inhibition at 25 µM [11] was 76.5%.

Compound O=C(N/N=C/c1c(-c2ccccc2)no[n+]1[O-])c1ccccc1N1C(=O)c2ccccc2C1=O has an Activity [2] of 36.2% and an inhibition at 100 µM [1] of 17.2%.

Work on Cc1c(N(C)CS(=O)(=O)[O-])c(=O)n(-c2ccccc2)n1C.[Na+] [DIPYRONE SODIUM] yielded an Activity [2] of 35%.
